# Laboratory results as given in ChEMBL document CHEMBL2406999, “Vialinin A is a ubiquitin-specific peptidase inhibitor” (Bioorg Med Chem Lett, 2013).
# Active and inactive are the calls of the source. No cut-off for these calls is given here.
# Key:
# [1] = molecular target: Calpain1/2 (Homo sapiens) (UniProt P17655+P07384); experiment: Inhibition of calpain1/2 (unknown origin) using Suc-LLVY-AMC as substrate at 6.3 uM after 20 mins by fluorometric analysis; assay type: protein assay
# [2] = molecular target: T1, Ubiquitin carboxyl-terminal hydrolase 8 (Homo sapiens) (UniProt P40818); experiment: Inhibition of human USP8 using Ub-AMC as substrate at 1 to 30 uM after 60 mins by fluorometric analysis
# T1 sequence (whole entry): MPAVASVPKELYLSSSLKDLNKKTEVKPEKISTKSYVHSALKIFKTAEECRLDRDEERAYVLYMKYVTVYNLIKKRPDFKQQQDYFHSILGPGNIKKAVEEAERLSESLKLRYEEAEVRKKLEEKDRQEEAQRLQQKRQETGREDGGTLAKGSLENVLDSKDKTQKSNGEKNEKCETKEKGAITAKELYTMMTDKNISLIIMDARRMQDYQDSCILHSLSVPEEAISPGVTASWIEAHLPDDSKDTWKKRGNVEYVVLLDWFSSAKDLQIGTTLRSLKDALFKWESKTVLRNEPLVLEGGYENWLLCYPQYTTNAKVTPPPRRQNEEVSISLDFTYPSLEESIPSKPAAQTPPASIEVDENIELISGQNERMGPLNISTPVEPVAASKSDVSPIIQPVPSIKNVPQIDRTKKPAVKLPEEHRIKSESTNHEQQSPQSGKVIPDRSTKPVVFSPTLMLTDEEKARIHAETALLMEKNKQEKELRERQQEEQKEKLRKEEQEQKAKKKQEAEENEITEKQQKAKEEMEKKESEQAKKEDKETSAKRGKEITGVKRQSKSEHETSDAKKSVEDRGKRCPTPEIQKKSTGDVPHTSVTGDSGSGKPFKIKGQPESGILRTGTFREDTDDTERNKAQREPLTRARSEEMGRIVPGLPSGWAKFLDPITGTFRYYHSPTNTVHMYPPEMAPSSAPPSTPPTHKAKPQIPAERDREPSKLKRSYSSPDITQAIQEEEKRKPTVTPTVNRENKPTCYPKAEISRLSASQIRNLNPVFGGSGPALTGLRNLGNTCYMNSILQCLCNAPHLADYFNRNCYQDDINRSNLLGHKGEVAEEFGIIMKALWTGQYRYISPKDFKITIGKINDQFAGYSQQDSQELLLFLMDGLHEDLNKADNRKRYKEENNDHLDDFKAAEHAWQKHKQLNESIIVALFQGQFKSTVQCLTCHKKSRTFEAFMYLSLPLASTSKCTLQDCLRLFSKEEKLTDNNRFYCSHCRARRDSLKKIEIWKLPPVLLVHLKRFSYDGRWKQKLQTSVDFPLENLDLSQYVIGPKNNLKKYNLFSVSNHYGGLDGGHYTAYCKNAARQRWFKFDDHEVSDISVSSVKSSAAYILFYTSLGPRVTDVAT
# [3] = molecular target: T2, Ubiquitin carboxyl-terminal hydrolase isozyme L1 (Homo sapiens, UniProt P09936); experiment: Inhibition of human UCH-L1 using Ub-AMC as substrate after 60 mins by fluorometric analysis
# T2 sequence (P09936 whole entry): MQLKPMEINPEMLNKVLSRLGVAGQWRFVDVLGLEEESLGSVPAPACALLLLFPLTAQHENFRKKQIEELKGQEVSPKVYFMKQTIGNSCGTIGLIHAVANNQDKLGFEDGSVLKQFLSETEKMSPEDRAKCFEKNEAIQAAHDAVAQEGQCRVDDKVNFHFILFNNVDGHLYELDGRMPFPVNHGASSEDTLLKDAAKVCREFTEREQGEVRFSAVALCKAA
# [4] = molecular target: T3, Ubiquitin carboxyl-terminal hydrolase isozyme L3 (Homo sapiens) (UniProt P15374); experiment: Inhibition of human UCH-L3 using Ub-AMC as substrate at 1 to 30 uM after 60 mins by fluorometric analysis
# T3 sequence (whole entry): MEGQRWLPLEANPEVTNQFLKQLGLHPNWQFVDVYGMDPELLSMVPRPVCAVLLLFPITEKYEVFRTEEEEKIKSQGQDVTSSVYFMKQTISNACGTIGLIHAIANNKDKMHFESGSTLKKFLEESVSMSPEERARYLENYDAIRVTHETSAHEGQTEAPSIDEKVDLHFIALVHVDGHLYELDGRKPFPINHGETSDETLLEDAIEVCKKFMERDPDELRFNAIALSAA
# [5] = molecular target: T4, Ubiquitin carboxyl-terminal hydrolase 5 (Homo sapiens) (UniProt P45974); experiment: Inhibition of wild type human USP5 expressed in Escherichia coli BL21(DE3) using K48-linked tetraubiquitin as substrate assessed as substrate hydrolysis at 10 uM after 15 mins by SDS-PAGE analysis
# T4 sequence (whole entry): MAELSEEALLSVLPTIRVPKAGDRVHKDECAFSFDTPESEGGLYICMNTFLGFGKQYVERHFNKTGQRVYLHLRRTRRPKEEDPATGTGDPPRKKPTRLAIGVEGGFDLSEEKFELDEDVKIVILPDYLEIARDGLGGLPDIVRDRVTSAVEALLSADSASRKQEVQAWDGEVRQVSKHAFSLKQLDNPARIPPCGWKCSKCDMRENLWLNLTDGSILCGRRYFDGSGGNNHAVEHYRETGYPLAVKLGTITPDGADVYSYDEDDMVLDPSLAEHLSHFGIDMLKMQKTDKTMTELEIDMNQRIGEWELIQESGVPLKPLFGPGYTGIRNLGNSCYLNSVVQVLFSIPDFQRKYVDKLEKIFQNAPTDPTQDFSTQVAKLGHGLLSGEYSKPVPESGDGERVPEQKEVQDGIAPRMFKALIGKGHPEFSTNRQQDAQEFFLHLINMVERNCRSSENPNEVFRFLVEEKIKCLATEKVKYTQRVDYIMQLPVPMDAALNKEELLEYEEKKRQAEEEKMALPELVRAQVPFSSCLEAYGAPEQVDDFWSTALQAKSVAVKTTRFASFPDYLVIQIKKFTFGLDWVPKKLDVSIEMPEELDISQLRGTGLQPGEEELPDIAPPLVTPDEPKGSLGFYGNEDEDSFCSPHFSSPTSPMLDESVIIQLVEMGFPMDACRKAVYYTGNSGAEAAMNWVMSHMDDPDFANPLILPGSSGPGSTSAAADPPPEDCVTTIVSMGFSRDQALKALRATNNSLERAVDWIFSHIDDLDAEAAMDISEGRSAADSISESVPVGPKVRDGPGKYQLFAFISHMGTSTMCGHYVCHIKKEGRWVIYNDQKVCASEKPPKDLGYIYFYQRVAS
# [6] = molecular target: T4, Ubiquitin carboxyl-terminal hydrolase 5 (Homo sapiens); experiment: Competitive binding affinity to human recombinant USP5 after 1 hr by SDS-PAGE analysis in presence of biotin-DMT
# RBL-2H3 = experiment: Binding affinity to USP5 in rat RBL2H3 cell extracts at 10 to 40 uM by SDS-PAGE analysis
# Chain of Calpain1/2 (Homo sapiens) (P07384 whole entry, looked up): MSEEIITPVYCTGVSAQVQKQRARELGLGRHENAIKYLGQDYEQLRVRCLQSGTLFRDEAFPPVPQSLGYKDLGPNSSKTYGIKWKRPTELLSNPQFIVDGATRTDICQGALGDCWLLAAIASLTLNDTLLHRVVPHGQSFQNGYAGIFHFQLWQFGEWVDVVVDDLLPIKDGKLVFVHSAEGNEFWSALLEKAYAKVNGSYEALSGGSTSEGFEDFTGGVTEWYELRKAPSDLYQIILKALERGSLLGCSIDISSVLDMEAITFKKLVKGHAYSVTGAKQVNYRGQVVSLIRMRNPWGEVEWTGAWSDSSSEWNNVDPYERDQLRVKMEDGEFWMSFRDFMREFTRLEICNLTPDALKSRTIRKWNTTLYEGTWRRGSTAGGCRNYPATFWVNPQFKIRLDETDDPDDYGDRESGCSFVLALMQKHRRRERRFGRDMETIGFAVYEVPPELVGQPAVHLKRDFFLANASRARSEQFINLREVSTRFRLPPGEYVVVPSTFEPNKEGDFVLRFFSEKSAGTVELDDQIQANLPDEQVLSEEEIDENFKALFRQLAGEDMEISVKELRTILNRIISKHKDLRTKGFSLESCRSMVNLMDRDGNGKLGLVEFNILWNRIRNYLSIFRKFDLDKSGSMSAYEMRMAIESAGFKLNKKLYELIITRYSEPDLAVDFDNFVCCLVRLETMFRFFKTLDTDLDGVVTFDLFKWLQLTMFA
# Chain of Calpain1/2 (Homo sapiens) (P17655 whole entry, looked up): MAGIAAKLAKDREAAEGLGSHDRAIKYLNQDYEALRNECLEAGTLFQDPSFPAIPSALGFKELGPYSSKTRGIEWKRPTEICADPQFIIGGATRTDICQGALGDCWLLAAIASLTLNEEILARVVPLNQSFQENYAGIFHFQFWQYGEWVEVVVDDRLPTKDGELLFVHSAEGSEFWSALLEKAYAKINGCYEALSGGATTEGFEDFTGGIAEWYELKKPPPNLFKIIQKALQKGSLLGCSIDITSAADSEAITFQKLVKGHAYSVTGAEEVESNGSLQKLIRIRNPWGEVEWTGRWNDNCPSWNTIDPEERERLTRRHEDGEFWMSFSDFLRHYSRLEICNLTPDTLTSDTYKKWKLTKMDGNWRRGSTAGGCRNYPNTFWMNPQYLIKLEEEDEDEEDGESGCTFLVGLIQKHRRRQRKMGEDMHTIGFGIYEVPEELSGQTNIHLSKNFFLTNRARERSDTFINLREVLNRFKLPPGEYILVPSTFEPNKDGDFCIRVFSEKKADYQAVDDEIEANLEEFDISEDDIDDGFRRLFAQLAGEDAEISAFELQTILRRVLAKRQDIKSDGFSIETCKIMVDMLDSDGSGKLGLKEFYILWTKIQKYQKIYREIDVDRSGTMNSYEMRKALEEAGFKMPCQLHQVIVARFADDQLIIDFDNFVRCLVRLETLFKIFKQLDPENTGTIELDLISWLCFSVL
structure (smiles),measurement,setting,value
O=C(Cc1ccccc1)Oc1c(OC(=O)Cc2ccccc2)c(-c2ccc(O)cc2)c(O)c(O)c1-c1ccc(O)cc1 [VIALININ A],inhibition,[1],inactive
same,inhibition,[2],inactive
same,IC50,[3],22.3 µM
same,inhibition,[4],inactive
same,inhibition,[5],Active
same,Activity,[6],Active
same,Activity,RBL-2H3,inactive
